Measurements from US20210205192A1, “ANTIMICROBIAL MIXTURE CONTAINING 4-(3-ETHOXY-4-HYDROXYPHENYL)BUTAN-2-ONE AND A DIOL, AND COSMETIC COMPOSITION CONTAINING SAME” (L'OREAL, priority 2017, published 2021).
Values belong to the compound of their own block, whether it stands above or below them.

What was measured:
[1] = tested on: Aspergillus niger ATCC 6275; assay: Synergistic antimicrobial activity as MIC (96-well microplate, optical density at 620 nm), Aspergillus niger; assay type: cell-based
Text: (§1) FIC Index=(MICa with B/MICa)+(MICb with A/MICb)
(§2) with: • MICa with B: minimum concentration of product A in the combination A+B which makes it possible to obtain an inhibitory effect • MICb with A: minimum concentration of product B in the combination A+B which makes it possible to obtain an inhibitory effect. • MICa: minimum inhibitory concentration of product A alone. • MICb: minimum inhibitory concentration of product B alone.
(§3) As regards the combinations tested, MICa with b and MICb with a are the respective concentrations of A and of B in the combinations which make it possible to obtain a microbial growth percentage of less than or equal to 20%.
(§4) When the FIC index value is less than or equal to 1, it is considered that the combination of test compounds has a synergistic effect.
The microbial strain Aspergillus niger ATCC 6275, and a double-concentration Sabouraud broth liquid culture medium supplemented with polyoxyethylenated (20 OE) sorbitan monopalmitate (Tween 40 from Croda) and Phytagel© BioReagent were used (i.e. a mixture of 5 g of Phytagel+0.6 g Tween 40+60 g of Sabouraud broth).
(§5) A 96-well microplate and an […] of 32.5° C. are used.
(§6) The incubation time of the microplate is: • from 18 to 24 h under aerobic conditions for Candida albicans ATCC 10231; • from 24 to 30 h under aerobic conditions for Aspergillus niger ATCC 6275.
(§7) A 10% (weight/volume) stock solution was prepared by mixing 1 g of compound in 9 ml of aqueous 1% o agar solution. Successive dilutions were made with the 1% o agar solution. • Test of compounds A and B alone
(§8) 50 μl of each of the daughter solutions obtained containing compound A or B are added to the microplate wells. 100 μl of Sabouraud liquid nutrient broth inoculated with the strain Aspergillus niger and 50 μl of aqueous 1% o agar solution are also added thereto. • Test of compounds A and B as a mixture
(§9) 50 μl of each of the daughter solutions obtained containing compound A and 50 μl of each of the daughter solutions obtained containing compound B are added to the microplate wells. 100 μl of Sabouraud liquid nutrient broth inoculated at double concentration with the strain Aspergillus niger are also added thereto.
A positive microbial growth control was also prepared. The positive microbial growth control corresponds to a mixture of 100 μl of aqueous 1% o agar solution with 100 μl of Sabouraud liquid nutrient broth inoculated at double concentration with the strain Aspergillus niger in the absence of compounds A and B.
An absorbance control was performed in parallel on compounds A and B alone. This control corresponds to 100 μl of double concentration sterile Sabouraud liquid nutrient broth+100 μl of double concentration compound A or B.
In the three cases (absorbance control, growth control and test), the final volume present in each of the microplate wells is 200 μl.
In the two cases (test and control), the inoculum represents the concentration of the Aspergillus niger strain present in the final volume of the wells (200 μl) and is between 2 and 6×10^5 cfu/ml of Aspergillus niger.

[2] = tested on: Candida albicans ATCC 10231; assay: Synergistic antimicrobial activity as MIC (96-well microplate, optical density at 620 nm), Candida albicans; assay type: cell-based
Text: as §1, §2, §3, §4
The microbial strain Candida albicans ATCC 10231 and a double-concentration Sabouraud broth liquid culture medium were used.
as §5, §6, §7, §8, §9
The test as described above (tests, absorbance control and growth control) was performed again to test the combination A and B on the Candida albicans strain.

[3] = Aspergillus niger, growth <= 20%

% MIC of A alone ([1]; Aspergillus niger, test series with B1, growth <= 20%): 0.1% | % MIC of A alone ([1]; Aspergillus niger, test series with B3, growth <= 20%): 0.1% | % MIC A ([2]; A alone, Candida albicans, test series with B2, growth <= 20%): 0.2% | % MIC of A alone ([2]; Candida albicans, test series with B3, growth <= 20%): 0.2%
SMILES: CCOc1cc(CCC(C)=O)ccc1O [A, 4-(3-ethoxy-4-hydroxyphenyl)butan-2-one]
microbial growth percentage ([1]; 0.025 A, 0 B1 (weight %)): 42% | microbial growth percentage ([1]; 0.025 A, 0 B3 (weight %)): 39% | microbial growth percentage ([1]; 0.05 A, 0 B1 (weight %)): 25% | microbial growth percentage ([1]; 0.05 A, 0 B3 (weight %)): 32% | microbial growth percentage ([1]; 0.1 A, 0 B1 (weight %)): 10% | microbial growth percentage ([1]; 0.1 A, 0 B3 (weight %)): 12% | microbial growth percentage ([2]; 0.025 A, 0 B2 (weight %)): 81% | microbial growth percentage ([2]; 0.025 A, 0 B3 (weight %)): 78% | microbial growth percentage ([2]; 0.05 A, 0 B2 (weight %)): 60% | microbial growth percentage ([2]; 0.05 A, 0 B3 (weight %)): 61% | microbial growth percentage ([2]; 0.1 A, 0 B2 (weight %)): 27% | microbial growth percentage ([2]; 0.1 A, 0 B3 (weight %)): 25% | microbial growth percentage ([2]; 0.2 A, 0 B2 (weight %)): 4% | microbial growth percentage ([2]; 0.2 A, 0 B3 (weight %)): 3%

SMILES: OCCCO [B1, 1,3-propanediol]
microbial growth percentage ([1]; 0 A, 0.125 B1 (weight %)): 77% | microbial growth percentage ([1]; 0 A, 0.25 B1 (weight %)): 62% | microbial growth percentage ([1]; 0 A, 0.5 B1 (weight %)): 50% | microbial growth percentage ([1]; 0 A, 1 B1 (weight %)): 36% | microbial growth percentage ([1]; 0 A, 2 B1 (weight %)): 11% | % MIC of B1 alone [1, 3]: 2%

MIC B2 ([2]; B2 alone, Candida albicans, growth <= 20%): 0.2%
SMILES: CCCCCCC(O)CO (centres unmarked) [B2, 1,2-octanediol]
microbial growth percentage ([2]; 0 A, 0.025 B2 (weight %)): 79% | microbial growth percentage ([2]; 0 A, 0.05 B2 (weight %)): 60% | microbial growth percentage ([2]; 0 A, 0.1 B2 (weight %)): 23% | microbial growth percentage ([2]; 0 A, 0.2 B2 (weight %)): 0%

% MIC of B3 alone [1, 3]: 0.025% | % MIC of B3 alone ([2]; Candida albicans, growth <= 20%): 0.025%
SMILES: CCCCCCCCC(O)CO (centres unmarked) [B3, 1,2-decanediol]
microbial growth percentage ([1]; 0 A, 0.0125 B3 (weight %)): 42% | microbial growth percentage ([1]; 0 A, 0.025 B3 (weight %)): 10% | microbial growth percentage ([2]; 0 A, 0.0125 B3 (weight %)): 45% | microbial growth percentage ([2]; 0 A, 0.025 B3 (weight %)): 3%
